Experimental data as given in US10807985B2 (Blueprint Medicines Corporation, priority 2013, dated 2020).
pIC50: −log10 of the molar value.

Columns and labels:
PDGFRA D842V = PDGFRA D842V (Homo sapiens (Human), UniProt P16234, D842V); experiment: PDGFRA D842V assay at Km (Caliper electrophoretic mobility shift); conditions: biochemical, 15 uM ATP (Km), 90 minutes at 25 C; read-out: INH PDFGRA D842V
D816V KIT = D816V KIT (Homo sapiens (Human), UniProt P10721, D816V); experiment: KIT D816V assay at Km (Caliper electrophoretic mobility shift); conditions: biochemical, 15 uM ATP (Km), 90 minutes at 25 C; read-out: INH KIT D816V
Sequence of D816V KIT (P10721 26-976 D816V): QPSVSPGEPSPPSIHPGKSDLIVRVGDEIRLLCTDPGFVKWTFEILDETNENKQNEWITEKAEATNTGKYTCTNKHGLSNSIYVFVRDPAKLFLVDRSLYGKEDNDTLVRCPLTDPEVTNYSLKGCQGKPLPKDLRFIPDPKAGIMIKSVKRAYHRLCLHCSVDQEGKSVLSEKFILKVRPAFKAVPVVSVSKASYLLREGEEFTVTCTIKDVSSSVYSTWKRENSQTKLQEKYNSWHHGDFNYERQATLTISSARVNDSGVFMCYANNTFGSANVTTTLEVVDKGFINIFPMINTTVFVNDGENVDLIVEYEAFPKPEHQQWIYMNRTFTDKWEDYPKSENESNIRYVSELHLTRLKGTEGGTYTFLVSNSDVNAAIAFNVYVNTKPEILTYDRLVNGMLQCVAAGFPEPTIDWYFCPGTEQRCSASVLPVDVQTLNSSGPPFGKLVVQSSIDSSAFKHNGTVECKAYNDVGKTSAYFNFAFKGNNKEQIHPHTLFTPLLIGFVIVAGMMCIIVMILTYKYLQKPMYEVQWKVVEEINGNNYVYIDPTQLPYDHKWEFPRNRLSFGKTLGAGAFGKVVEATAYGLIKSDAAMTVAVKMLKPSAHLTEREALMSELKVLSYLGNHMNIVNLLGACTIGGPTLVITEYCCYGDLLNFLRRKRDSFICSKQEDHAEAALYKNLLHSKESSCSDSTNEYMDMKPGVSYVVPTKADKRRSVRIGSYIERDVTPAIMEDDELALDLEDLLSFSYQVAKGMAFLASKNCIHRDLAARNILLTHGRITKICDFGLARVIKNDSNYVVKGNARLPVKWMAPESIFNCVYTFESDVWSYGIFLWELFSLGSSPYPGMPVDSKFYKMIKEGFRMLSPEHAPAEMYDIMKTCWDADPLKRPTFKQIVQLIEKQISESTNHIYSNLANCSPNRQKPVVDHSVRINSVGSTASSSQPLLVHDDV

[1] = biological target: KIT D816V kinase activity (KIT autophosphorylation at tyrosine 719) in HMC1.2 cells (Homo sapiens (Human), UniProt P10721, D816V/V560G); experiment: HMC1.2 autophosphorylation assay (phospho-Y719 c-KIT AlphaLISA); assay type: cell-based; conditions: HMC1.2 mast cell leukemia cell line (KIT V560G, D816V), 90 minutes compound; read-out: INH-KIT-PHOS-HMC1.2
Sequence of KIT D816V kinase activity (KIT autophosphorylation at tyrosine 719) in HMC1.2 cells (P10721 26-976 V560G/D816V): as the sequence (P10721 26-976 D816V) above, with V535G counted along it

Sequence of PDGFRA D842V (P16234 24-1089 D842V): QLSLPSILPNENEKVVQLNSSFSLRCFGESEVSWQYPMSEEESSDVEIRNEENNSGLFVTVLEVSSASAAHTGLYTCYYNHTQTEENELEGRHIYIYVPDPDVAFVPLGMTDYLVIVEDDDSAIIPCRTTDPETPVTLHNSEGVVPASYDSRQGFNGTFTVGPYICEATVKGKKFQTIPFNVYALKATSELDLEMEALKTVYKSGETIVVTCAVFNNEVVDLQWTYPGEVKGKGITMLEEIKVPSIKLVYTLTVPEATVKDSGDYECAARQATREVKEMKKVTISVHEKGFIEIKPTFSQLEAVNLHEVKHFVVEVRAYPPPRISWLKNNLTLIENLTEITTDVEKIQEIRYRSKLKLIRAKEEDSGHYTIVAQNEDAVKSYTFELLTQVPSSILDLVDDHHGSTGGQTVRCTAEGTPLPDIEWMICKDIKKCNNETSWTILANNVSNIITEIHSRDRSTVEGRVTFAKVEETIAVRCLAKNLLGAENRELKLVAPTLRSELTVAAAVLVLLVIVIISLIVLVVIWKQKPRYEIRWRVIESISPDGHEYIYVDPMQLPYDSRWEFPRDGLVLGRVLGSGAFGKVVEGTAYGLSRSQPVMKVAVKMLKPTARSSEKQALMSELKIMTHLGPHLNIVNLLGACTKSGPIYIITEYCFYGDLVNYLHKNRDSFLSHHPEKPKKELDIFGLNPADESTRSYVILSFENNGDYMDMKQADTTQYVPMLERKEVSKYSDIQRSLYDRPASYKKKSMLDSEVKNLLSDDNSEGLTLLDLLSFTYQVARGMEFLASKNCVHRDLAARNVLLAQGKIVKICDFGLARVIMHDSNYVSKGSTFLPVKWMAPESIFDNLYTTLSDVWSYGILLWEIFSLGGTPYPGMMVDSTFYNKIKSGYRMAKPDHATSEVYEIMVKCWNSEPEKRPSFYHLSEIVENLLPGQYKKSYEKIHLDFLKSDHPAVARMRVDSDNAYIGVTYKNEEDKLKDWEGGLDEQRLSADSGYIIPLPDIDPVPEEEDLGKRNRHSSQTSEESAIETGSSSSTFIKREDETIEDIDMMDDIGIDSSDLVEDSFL

Row | SMILES | pIC50 (PDGFRA D842V) | pIC50 (D816V KIT) | pIC50 [1]
1 | C[C@@H](c1ccccc1)c1cnc(N2CCN(c3ncnn4cc(-c5cnn(C)c5)cc34)CC2)nc1 [Compound 10, (S)-6-(1-methyl-1H-pyrazol-4-yl)-4-(4-(5-(1-phenylethyl)pyrimidin-2-yl)piperazin-1-yl)pyrrolo[1,2-f][1,2,4]triazine] | > 9.00 | > 9.00 | > 7.30
2 | Cn1cc(-c2cc3c(N4CCN(c5ncc(Cc6ccc(F)cc6)cn5)CC4)ncnn3c2)cn1 [Compound 14] | 8.00 to 9.00 | > 9.00 | > 7.30
3 | CCn1cc(-c2cc3c(N4CCN(c5ncc([C@@](C)(N)c6ccccc6)cn5)CC4)ncnn3c2)cn1 [Compound 35] | > 9.00 | > 9.00 | > 7.30
4 | C[C@](O)(c1ccc(F)cc1)c1cnc(N2CCN(c3ncnn4cc(-c5ccccc5)cc34)CC2)nc1 [Compound 38] | 8.00 to 9.00 | 8.00 to 9.00 | 7.00 to 7.30
5 | CCn1cc(-c2cc3c(N4CCN(c5ncc([C@@](C)(N)c6ccc(F)cc6)cn5)CC4)ncnn3c2)cn1 [Compound 63] | – | > 9.00 | > 7.30
6 | C[C@](O)(c1ccc(F)cc1)c1cnc(N2CCN(c3ncnn4cc(-c5cccc(F)c5)cc34)CC2)nc1 [Compound 66] | – | 8.00 to 9.00 | 6.00 to 7.00
7 | CC[C@](O)(c1ccc(F)cc1)c1cnc(N2CCN(c3ncnn4cc(-c5cnn(C)c5)cc34)CC2)nc1 [Compound 69] | – | 8.00 to 9.00 | 6.00 to 7.00
8 | CC[C@@](O)(c1ccc(F)cc1)c1cnc(N2CCN(c3ncnn4cc(-c5cnn(C)c5)cc34)CC2)nc1 [Compound 70] | – | 8.00 to 9.00 | > 7.30
9 | Cc1ccc(-c2cc3c(N4CCN(c5ncc([C@](C)(O)c6ccc(F)cc6)cn5)CC4)ncnn3c2)s1 [Compound 81] | – | 7.00 to 8.00 | 5.00 to 6.00
10 | Cc1ccc(-c2cc3c(N4CCN(c5ncc([C@@](C)(O)c6ccc(F)cc6)cn5)CC4)ncnn3c2)s1 [Compound 82] | – | 7.00 to 8.00 | 6.00 to 7.00
11 | Cn1cc(-c2cc3c(N4CCN(c5ncc([C@@](C)(O)c6ccc(Cl)cc6)cn5)CC4)ncnn3c2)cn1 [Compound 83] | – | > 9.00 | > 7.30
12 | Cn1cc(-c2cc3c(N4CCN(c5ncc([C@@](C)(N)c6ccc(F)cc6F)cn5)CC4)ncnn3c2)cn1 [Compound 85] | – | > 9.00 | > 7.30
13 | Cn1cc(-c2cn3ncnc(N4CCN(c5ncc([C@@](C)(O)c6ccc(F)cc6)cn5)CC4)c3c2F)cn1 [Compound 90] | – | < 7.00 | 5.00 to 6.00
14 | Cn1cc(-c2cc3c(N4CCN(c5ncc([C@](C)(O)c6c(F)cccc6F)cn5)CC4)ncnn3c2)cn1 [Compound 91] | – | > 9.00 | 7.00 to 7.30
15 | Cn1cc(-c2cc3c(N4CCN(c5ncc(S(=O)(=O)c6ccc(F)cc6)cn5)CC4)ncnn3c2)cn1 [Compound 99] | – | 7.00 to 8.00 | 5.00 to 6.00
16 | COc1cccc(-c2cc3c(N4CCN(c5ncc([C@@](C)(O)c6ccc(F)cc6)cn5)CC4)ncnn3c2)c1 [Compound 101] | – | 7.00 to 8.00 | 7.00 to 7.30
17 | Cn1cc(-c2cc3c(N4CCN(c5ncc([C@@](O)(c6ccc(F)cc6)C6CC6)cn5)CC4)ncnn3c2)cn1 [Compound 104] | – | 8.00 to 9.00 | 6.00 to 7.00
18 | Cn1cc(-c2cc3c(N4CCN(c5ncc([C@](N)(c6ccc(F)cc6)C(F)F)cn5)CC4)ncnn3c2)cn1 [Compound 112] | – | 8.00 to 9.00 | 6.00 to 7.00
19 | Cn1cc(-c2cc3c(N4CCN(c5ncc([C@](C)(N)c6c(F)cc(F)cc6F)cn5)CC4)ncnn3c2)cn1 [Compound 113] | – | > 9.00 | > 7.30
20 | Cn1cc(-c2cc3c(N4CCN(c5ncc([C@@](C)(N)c6c(F)cc(F)cc6F)cn5)CC4)ncnn3c2)cn1 [Compound 114] | – | > 9.00 | > 7.30
21 | c1ccc(Cc2cnc(N3CCN(c4ncnn5cc(-c6cnn(C[C@@H]7CNCCO7)c6)cc45)CC3)nc2)cc1 [Compound 120] | – | > 9.00 | 7.00 to 7.30

The remaining lines, values ahead:

Row | pIC50 (PDGFRA D842V) | pIC50 (D816V KIT) | pIC50 [1] | SMILES
22 | 8.00 to 9.00 | 8.00 to 9.00 | 7.00 to 7.30 | CC[C@@H](c1ccc(F)cc1)c1cnc(N2CCN(c3ncnn4cc(-c5cnn(C)c5)cc34)CC2)nc1 (single isomer, unassigned) [Compound 41]
23 | 8.00 to 9.00 | 8.00 to 9.00 | > 7.30 | C[C@H](c1ccccc1)c1cnc(N2CCN(c3ncnn4cc(-c5cnn(C)c5)cc34)CC2)nc1 [Compound 9, (R)-6-(1-methyl-1H-pyrazol-4-yl)-4-(4-(5-(1-phenylethyl)pyrimidin-2-yl)piperazin-1-yl)pyrrolo[1,2-f][1,2,4]triazine]
24 | 7.00 to 8.00 | 7.00 to 8.00 | < 5.00 | COc1ccc(-c2cc3c(N4CCN(c5ncc(Cc6ccccc6)cn5)CC4)ncnn3c2)cc1 [Compound 18]
25 | 8.00 to 9.00 | 8.00 to 9.00 | > 7.30 | Cn1cc(-c2cc3c(N4CCN(c5ncc(C(C)(C)c6ccccc6)cn5)CC4)ncnn3c2)cn1 [Compound 20]
26 | > 9.00 | 8.00 to 9.00 | 7.00 to 7.30 | Cn1cc(-c2cc3c(N4CCN(c5ncc([C@](C)(N)c6ccccc6)cn5)CC4)ncnn3c2)cn1 [Compound 21]
27 | > 9.00 | > 9.00 | > 7.30 | Cn1cc(-c2cc3c(N4CCN(c5ncc([C@@](C)(N)c6ccccc6)cn5)CC4)ncnn3c2)cn1 [Compound 22]
28 | > 9.00 | > 9.00 | > 7.30 | C[C@](N)(c1ccc(F)cc1)c1cnc(N2CCN(c3ncnn4cc(-c5cn[nH]c5)cc34)CC2)nc1 [Compound 26]
29 | 8.00 to 9.00 | 8.00 to 9.00 | 7.00 to 7.30 | C[C@@](O)(c1ccc(F)cc1)c1cnc(N2CCN(c3ncnn4cc(-c5cn[nH]c5)cc34)CC2)nc1 [Compound 29]
30 | > 9.00 | > 9.00 | > 7.30 | C[C@](O)(c1ccc(F)cc1)c1cnc(N2CCN(c3ncnn4cc(-c5cn[nH]c5)cc34)CC2)nc1 [Compound 30]
31 | > 9.00 | > 9.00 | 7.00 to 7.30 | C[C@](N)(c1ccccc1)c1cnc(N2CCN(c3ncnn4cc(-c5ccc(F)cc5)cc34)CC2)nc1 [Compound 34]
32 | > 9.00 | 8.00 to 9.00 | > 7.30 | Cn1cc(-c2cc3c(N4CCN(c5ncc(C(C)(C)c6ccc(F)cc6)cn5)CC4)ncnn3c2)cn1 [Compound 39]
33 | > 9.00 | > 9.00 | – | C[C@@](O)(c1cnc(N2CCN(c3ncnn4cc(-c5cn[nH]c5)cc34)CC2)nc1)c1ccc(F)cc1F [Compound 58]
34 | – | 8.00 to 9.00 | 6.00 to 7.00 | Cn1cc(-c2cc3c(N4CCN(c5ncc(C6(c7ccc(F)cc7)COC6)cn5)CC4)ncnn3c2)cn1 [Compound 61]
35 | – | 7.00 to 8.00 | 6.00 to 7.00 | C[C@@](O)(c1ccc(F)cc1)c1cnc(N2CCN(c3ncnn4cc(-c5ccc(F)cc5)cc34)CC2)nc1 [Compound 64]
36 | – | 7.00 to 8.00 | 6.00 to 7.00 | CO[C@@](C)(c1ccc(F)cc1)c1cnc(N2CCN(c3ncnn4cc(-c5cnn(C)c5)cc34)CC2)nc1 [Compound 67]
37 | – | 8.00 to 9.00 | > 7.30 | C[C@@H](c1ccc(F)cc1)c1cnc(N2CCN(c3ncnn4cc(-c5cnn(C)c5)cc34)C[C@H]2CO)nc1 [Compound 73]
38 | – | 8.00 to 9.00 | 7.00 to 7.30 | C[C@H](c1ccc(F)cc1)c1cnc(N2CCN(c3ncnn4cc(-c5cnn(C)c5)cc34)C[C@H]2CO)nc1 [Compound 74]
39 | – | > 9.00 | > 7.30 | CCn1cc(-c2cc3c(N4CCN(c5ncc([C@@](C)(O)c6ccc(F)cc6)cn5)CC4)ncnn3c2)cn1 [Compound 75]
40 | – | > 9.00 | > 7.30 | Cc1ncc(-c2cc3c(N4CCN(c5ncc([C@@](C)(O)c6ccc(F)cc6)cn5)CC4)ncnn3c2)s1 [Compound 88]
41 | – | < 7.00 | 5.00 to 6.00 | Cn1cc(-c2cn3ncnc(N4CCN(c5ncc([C@](C)(O)c6ccc(F)cc6)cn5)CC4)c3c2F)cn1 [Compound 89]
42 | – | 8.00 to 9.00 | > 7.30 | Cn1cc(-c2cc3c(N4CCN(c5ncc([C@@](C)(O)c6c(F)cccc6F)cn5)CC4)ncnn3c2)cn1 [Compound 92]
43 | – | > 9.00 | 7.00 to 7.30 | Cn1cc(-c2cc3c(N4CCN(c5ncc([C@@](O)(CF)c6ccc(F)cc6)cn5)CC4)ncnn3c2)cn1 [Compound 95]
44 | – | 8.00 to 9.00 | 6.00 to 7.00 | Cn1cc(-c2cc3c(N4CCN(c5ncc([C@](O)(c6ccc(F)cc6)C6CC6)cn5)CC4)ncnn3c2)cn1 [Compound 103]
45 | – | 8.00 to 9.00 | > 7.30 | C[C@H](O)Cn1cc(-c2cc3c(N4CCN(c5ncc(Sc6ccccc6F)cn5)CC4)ncnn3c2)cn1 [Compound 105]
46 | – | 8.00 to 9.00 | > 7.30 | Cn1cc(-c2cc3c(N4CCN(c5ncc(C(C)(C)c6c(F)cc(F)cc6F)cn5)CC4)ncnn3c2)cn1 [Compound 106]
47 | – | < 7.00 | 5.00 to 6.00 | Cn1cc(-c2cn3ncnc(N4CCN(c5ncc([C@@](C)(O)c6ccc(F)cc6)cn5)CC4)c3c2Cl)cn1 [Compound 108]
48 | – | 7.00 to 8.00 | 6.00 to 7.00 | Cn1cc(-c2cc3c(N4CCN(c5ncc([C@](C)(O)c6ccc(F)cc6Cl)cn5)CC4)ncnn3c2)cn1 [Compound 109]
49 | – | 8.00 to 9.00 | > 7.30 | Cn1cc(-c2cc3c(N4CCN(c5ncc([C@@](C)(O)c6ccc(F)cc6Cl)cn5)CC4)ncnn3c2)cn1 [Compound 110]
50 | – | 8.00 to 9.00 | 6.00 to 7.00 | Cn1cc(-c2cc3c(N4CCN(c5ncc([C@](O)(c6ccc(F)cc6)C(F)F)cn5)CC4)ncnn3c2)cn1 [Compound 118]
51 | – | 8.00 to 9.00 | > 7.30 | CC(C)(C)OC(=O)N1CC=C(c2cc3c(N4CCN(c5ncc([C@@](C)(O)c6ccc(F)cc6)cn5)CC4)ncnn3c2)CC1 [Compound 124]
